According to ChEMBL document CHEMBL1136171, “Acetylenic TACE inhibitors. Part 1. SAR of the acyclic sulfonamide hydroxamates” (Bioorg Med Chem Lett, 2003):

Legend:
Interstitial collagenase = molecular target: T1, Interstitial collagenase (Homo sapiens, UniProt P03956); assay: In vitro inhibition of Matrix metalloprotein 1
T1 sequence (P03956 whole entry): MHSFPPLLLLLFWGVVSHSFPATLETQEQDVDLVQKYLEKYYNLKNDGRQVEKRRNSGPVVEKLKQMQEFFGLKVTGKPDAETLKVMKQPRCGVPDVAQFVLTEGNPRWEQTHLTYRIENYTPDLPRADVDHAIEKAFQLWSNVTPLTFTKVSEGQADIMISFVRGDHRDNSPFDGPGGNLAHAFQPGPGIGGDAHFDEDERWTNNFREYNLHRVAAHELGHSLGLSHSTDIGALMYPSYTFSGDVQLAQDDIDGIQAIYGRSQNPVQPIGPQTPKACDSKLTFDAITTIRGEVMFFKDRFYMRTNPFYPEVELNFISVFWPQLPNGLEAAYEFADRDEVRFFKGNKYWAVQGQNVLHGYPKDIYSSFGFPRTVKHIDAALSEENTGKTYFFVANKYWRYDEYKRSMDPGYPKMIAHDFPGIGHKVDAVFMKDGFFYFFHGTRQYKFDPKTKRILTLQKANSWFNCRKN

Mus musculus [1] = assay: In vivo percent inhibition against LPS-stimulated production of TNF-alpha in a mouse at a dose of 50 mg/Kg p.o.; format: functional; details: po, read-out: Inhibition
THP-1 [2] = assay: Inhibition of LPS-stimulated production of TNF-alpha, at the dose of 1 uM concentration; format: functional; details: for inhibition at 1 µM: Homo sapiens, THP-1
[3] = molecular target: T2, Disintegrin and metalloproteinase domain-containing protein 17 (Homo sapiens, UniProt P78536); assay: In vitro inhibition of tumor necrosis factor-alpha converting enzyme
[4] = molecular target: Matrix metalloproteinase-9 (Homo sapiens, UniProt P14780)
Description: In vitro inhibition of Matrix metalloprotein-9

Collagenase 3 = Collagenase 3 (Homo sapiens, UniProt P45452)
Description: In vitro inhibition of Matrix metalloprotein 13

THP-1 [5] = assay: Inhibition of LPS-stimulated production of TNF-alpha at the dose of 3 uM concentration; format: functional; details: Homo sapiens
[6] = Oral bioavailability in rat at 10 mg/kg of the compound; format: ADME, organism-based; details: in vivo
[7] = Oral bioavailability in monkey at 10 mg/kg of the compound; format: ADME, organism-based; details: cercopithecidae, in vivo
[8] = Oral bioavailability in dog at 10 mg/kg of the compound; format: ADME, organism-based, Canis lupus familiaris; details: in vivo
[9] = Oral bioavailability in mouse at 10 mg/kg of the compound; format: ADME, organism-based; details: in vivo
Homo sapiens = organism: Homo sapiens; assay: Inhibitory concentration against LPS-stimulated TNF-alpha production in human whole blood; format: functional
Mus musculus [10] = organism: Mus musculus; assay: Effective dose in mouse; format: functional
Mus musculus [11] = assay: Compound was reproducibly active at reducing clinical severity scores expressed as efficacy in mouse p.o.; format: functional
Mus musculus [12] = assay: Compound was reproducibly active at reducing clinical severity scores in mouse p.o.; format: functional
[13] = molecular target: T3, Interstitial collagenase (Homo sapiens) (UniProt P03956); assay: Inhibition of Matrix metalloprotein 1 at 10 uM
T3 sequence (whole entry): T1 sequence (P03956 whole entry)

[14] = molecular target: T2, Disintegrin and metalloproteinase domain-containing protein 17; assay: Inhibition of tumor necrosis factor-alpha converting enzyme; details: concentration not given here

T2 sequence (P78536 whole entry, the tested form may be a part): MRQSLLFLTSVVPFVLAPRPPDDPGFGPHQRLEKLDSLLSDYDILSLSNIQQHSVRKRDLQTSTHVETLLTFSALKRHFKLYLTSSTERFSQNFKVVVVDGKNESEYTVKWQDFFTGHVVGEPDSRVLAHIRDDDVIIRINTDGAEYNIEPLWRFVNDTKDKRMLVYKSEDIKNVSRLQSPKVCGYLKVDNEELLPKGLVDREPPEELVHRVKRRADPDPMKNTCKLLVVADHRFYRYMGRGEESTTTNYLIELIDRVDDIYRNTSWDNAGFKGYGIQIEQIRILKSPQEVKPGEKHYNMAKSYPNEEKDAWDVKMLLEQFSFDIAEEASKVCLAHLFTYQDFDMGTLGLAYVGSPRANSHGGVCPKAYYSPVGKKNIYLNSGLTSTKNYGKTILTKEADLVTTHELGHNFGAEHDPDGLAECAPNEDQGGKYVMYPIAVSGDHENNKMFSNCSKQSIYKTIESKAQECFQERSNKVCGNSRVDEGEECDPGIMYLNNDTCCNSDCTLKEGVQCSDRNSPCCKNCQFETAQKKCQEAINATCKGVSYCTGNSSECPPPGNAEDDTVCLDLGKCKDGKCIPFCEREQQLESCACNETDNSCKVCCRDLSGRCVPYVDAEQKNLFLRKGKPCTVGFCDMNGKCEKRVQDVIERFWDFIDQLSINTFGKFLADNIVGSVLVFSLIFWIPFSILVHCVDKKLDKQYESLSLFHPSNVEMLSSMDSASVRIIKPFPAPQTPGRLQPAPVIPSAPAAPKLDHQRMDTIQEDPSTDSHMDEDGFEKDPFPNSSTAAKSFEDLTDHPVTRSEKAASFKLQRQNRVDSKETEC
Chain of Matrix metalloproteinase-9 (P14780 whole entry): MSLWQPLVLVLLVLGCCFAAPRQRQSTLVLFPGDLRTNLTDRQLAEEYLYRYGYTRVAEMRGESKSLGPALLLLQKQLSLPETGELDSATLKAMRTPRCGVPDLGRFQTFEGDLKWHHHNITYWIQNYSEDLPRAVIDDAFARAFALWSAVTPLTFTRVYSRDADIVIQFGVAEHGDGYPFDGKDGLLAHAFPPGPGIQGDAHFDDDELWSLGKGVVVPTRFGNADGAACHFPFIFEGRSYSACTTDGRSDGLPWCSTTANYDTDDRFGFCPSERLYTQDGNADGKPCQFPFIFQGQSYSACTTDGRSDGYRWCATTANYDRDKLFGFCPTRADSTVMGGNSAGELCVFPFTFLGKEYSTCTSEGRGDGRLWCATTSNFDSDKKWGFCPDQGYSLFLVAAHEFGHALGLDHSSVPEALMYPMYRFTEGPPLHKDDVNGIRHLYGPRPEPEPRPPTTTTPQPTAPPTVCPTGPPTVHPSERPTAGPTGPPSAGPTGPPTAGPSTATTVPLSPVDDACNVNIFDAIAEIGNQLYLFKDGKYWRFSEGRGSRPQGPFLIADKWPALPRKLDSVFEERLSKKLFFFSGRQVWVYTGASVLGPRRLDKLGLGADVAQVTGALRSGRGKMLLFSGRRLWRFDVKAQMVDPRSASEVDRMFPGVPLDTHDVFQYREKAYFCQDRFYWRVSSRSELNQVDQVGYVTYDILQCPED

| SMILES | IC50 (Interstitial collagenase) | inhibition at 1 µM (THP-1 [2]) | IC50 [3] | IC50 [4] | IC50 (Collagenase 3) | further results |
| --- | --- | --- | --- | --- | --- | --- |
| CC#CCOc1ccc(S(=O)(=O)N[C@H](C)C(=O)NO)cc1 | 4030 nM | 40% | 4 nM | 796 nM | 195 nM | inhibition in vivo at 50 mg/kg (Mus musculus [1]): > 75% |
| CC#CCOc1ccc(S(=O)(=O)N(C)CC(=O)NO)cc1 | – | 22% | 7 nM | – | – | – |
| CC#CCOc1ccc(S(=O)(=O)N[C@@H](C(=O)NO)c2ccc(OCCNC)cc2)cc1 | 10000 nM | 48% | – | – | – | – |
| CC#CCOc1ccc(S(=O)(=O)NCCC(=O)NO)cc1 | – | – | – | – | – | inhibition at 3 µM (THP-1 [5]): 0% |
| C#CCNc1ccc(S(=O)(=O)N(C)CC(=O)NO)cc1 | ~10000 nM | – | – | – | – | – |
| CC#CCOc1ccc(S(=O)(=O)N[C@@H](C(=O)NO)C(C)O)cc1 (stereo not given in full) | 2470 nM | 50% | 10 nM | 777 nM | 86 nM | bioavailability [6]: 46%; bioavailability [7]: 17%; bioavailability [8]: 75%; bioavailability [9]: 100%; IC50 (Homo sapiens): 1000 nM; ED50 (Mus musculus [10]): 3 mg/kg; Activity (Mus musculus [11]): 20 mg/kg; Activity (Mus musculus [12]): 10 mg/kg |
| CC#CCOc1ccc(S(=O)(=O)N(C)CCC(=O)NO)cc1 | – | – | – | – | – | inhibition at 3 µM (THP-1 [5]): 9% |
| CC#CCOc1ccc(S(=O)(=O)NC(C(=O)NO)C(C)(C)SCc2cccnc2)cc1 (stereo not given) | 476 nM | 49% | 6 nM | 130 nM | 8 nM | – |
| CC#CCOc1ccc(S(=O)(=O)N[C@@H](C(=O)NO)C(C)(C)C)cc1 | – | 78% | – | – | – | inhibition in vivo at 50 mg/kg (Mus musculus [1]): > 75% |
| CC#CCOc1ccc(S(=O)(=O)NCC(=O)NO)cc1 | – | 15% | 5 nM | – | – | inhibition [13]: 47% |
| CC#CCOc1ccc(S(=O)(=O)N(C)C(C(=O)NO)C(C)(C)SCc2cccnc2)cc1 (stereo not given) | – | 52% | 54 nM | 4 nM | 2 nM | – |
| CN(CC(=O)NO)S(=O)(=O)c1ccc(CCC#N)cc1 | > 10000 nM | – | – | 74 nM | 207 nM | inhibition [14]: 6%; inhibition at 3 µM (THP-1 [5]): 7% |
| CC#CCOc1ccc(S(=O)(=O)NC(CSCc2cccnc2)C(=O)NO)cc1 (stereo not given) | 1910 nM | 56% | 3 nM | 160 nM | 28 nM | – |
| CC#CCOc1ccc(S(=O)(=O)N(C)[C@H](C)C(=O)NO)cc1 | 330 nM | – | 5 nM | 68 nM | 28 nM | Inhibition (THP-1 [2]): 60% |
| CC#CCOc1ccc(S(=O)(=O)NC(C)(C)C(=O)NO)cc1 | – | 9% | – | – | – | – |
| CC#CCOc1ccc(S(=O)(=O)N(C)[C@@H](C(=O)NO)C(C)C)cc1 | 259 nM | 79% | 15 nM | – | 38 nM | – |
| CC#CCOc1ccc(S(=O)(=O)N[C@@H](C(=O)NO)C(C)C)cc1 | 2960 nM | 58% | 10 nM | 42 nM | 18 nM | – |
| CC#CCOc1ccc(S(=O)(=O)N(C)C(CSCc2cccnc2)C(=O)NO)cc1 (stereo not given) | – | 80% | – | – | 5 nM | – |
| CC#CCOc1ccc(S(=O)(=O)N(CC(=O)NO)Cc2cccnc2)cc1 | – | 45% | – | – | – | – |
| CC#CCOc1ccc(S(=O)(=O)N(C)[C@@H](C(=O)NO)c2ccc(OCCNC)cc2)cc1 | – | 87% | – | – | – | inhibition in vivo at 50 mg/kg (Mus musculus [1]): > 75% |
